From BigSolDB 2.1

O=C1CCC(=O)O1
solubility (mole fraction)
Settings	283.15 K	288.15 K	293.15 K	298.15 K	303.15 K	308.15 K	313.15 K	318.15 K	323.15 K
in THF	0.071	0.077	0.085	0.093	0.104	0.115	0.129	0.145	0.164
in gamma-butyrolactone	0.197	0.218	0.239	0.261	0.283	0.307	0.331	0.354	0.378
